Measured values published in patent publication US7432283B2, “Heterocyclic GABAA subtype selective receptor modulators” (Roche Palo Alto LLC, priority 2004, dated 2008).

Structure (SMILES) | melting point
CCCC(c1cccs1)c1c2c(nn1C)N(c1c(C)cc(C)cc1C)CCC2 (centres unmarked) [Compound 4-3, 2-Methyl-3-(1-thiophen-2-ylbutyl)-7-(2,4,6-trimethylphenyl)-4,5,6,7-tetrahydro-2H-pyrazolo[3,4-b]pyridine] | 87.6 to 90.3 °C
CCCC(CCC)c1c2c(nn1C)N(c1c(C)cc(C)cc1C)CCCC2 [Compound 4-4, 2-Methyl-3-(1-propylbutyl)-8-(2,4,6-trimethylphenyl)-2,4,5,6,7,8-hexahydro-1,2,8-triazaazulene] | 96 to 98.1 °C
Cc1cc(C)c(N2CCCc3c2nn(C)c3C(=O)O)c(Cl)c1 [Compound 5-1, 7-(2-Chloro-4,6-dimethylphenyl)-2-methyl-4,5,6,7-tetrahydro-2H-pyrazolo[3,4-b]pyridine-3-carboxylic acid] | 247.8 to 248.3 °C
Cc1cc(C)c(N2CCCc3c2nn(C)c3NC(=O)OC(C)(C)C)c(Cl)c1 [Compound 5-3, [7-(2-Chloro-4,6-dimethylphenyl)-2-methyl-4,5,6,7-tetrahydro-2H-pyrazolo[3,4-b]pyridin-3-yl]carbamic acid tert-butyl ester] | 171.4 to 175.7 °C
CCOC(=O)Nc1c2c(nn1C)N(c1c(C)cc(C)cc1Cl)CCC2 [Compound 5-4, [7-(2-Chloro-4,6-dimethylphenyl)-2-methyl-4,5,6,7-tetrahydro-2H-pyrazolo[3,4-b]pyridin-3-yl]carbamic acid ethyl ester] | 204 to 207.8 °C
CCCN(CCC)c1c2c(nn1C)N(c1c(C)cc(C)cc1Cl)CCC2 [Compound 5-5, [7-(2-Chloro-4,6-dimethylphenyl)-2-methyl-4,5,6,7-tetrahydro-2H-pyrazolo[3,4-b]pyridin-3-yl]dipropylamine] | 90 to 91 °C
Cn1nc2c(c1N)CCCN2c1ccc(Cl)cc1Cl [Compound 5-43, 7-(2,4-Dichloro-phenyl)-2-methyl-4,5,6,7-tetrahydro-2H-pyrazolo[3,4-b]pyridin-3-ylamine] | 176.9 to 178.9 °C

Other lines, results leading:

melting point | Structure (SMILES)
79.7 to 81.4 °C | CCc1c2c(nn1C)N(c1c(C)cc(C)cc1C)CCC2 [Compound 4-5, 3-Ethyl-2-methyl-7-(2,4,6-trimethyl-phenyl)-4,5,6,7-tetrahydro-2H-pyrazolo[3,4-b]pyridine]
105.9 to 108.9 °C | Cc1cc(C)c(N2CCCc3c2nn(C)c3C(C)C)c(C)c1 [Compound 4-7, 3-Isopropyl-2-methyl-7-(2,4,6-trimethyl-phenyl)-4,5,6,7-tetrahydro-2H-pyrazolo[3,4-b]pyridine]
228.6 to 233.9 °C | Cc1cc(C)c(N2CCCc3c2nn(C)c3C(=O)O)c(C)c1 [Compound 5-2, 7-(2,4,6-Trimethylphenyl)-2-methyl-4,5,6,7-tetrahydro-2H-pyrazolo[3,4-b]pyridine-3-carboxylic acid]
88.9 to 91.5 °C | CCCN(CCC)c1c2c(nn1C)N(c1c(C)cc(C)cc1C)CCC2 [Compound 5-35, [2-Methyl-7-(2,4,6-trimethylphenyl)-4,5,6,7-tetrahydro-2H-pyrazolo[3,4-b]pyridin-3-yl]-dipropylamine]
99.3 to 104.9 °C | CCC(CC)Nc1c2c(nn1C)N(c1c(C)cc(C)cc1C)CCC2 [Compound 5-36, (1-Ethylpropyl)-[2-methyl-7-(2,4,6-trimethyl-phenyl)-4,5,6,7-tetrahydro-2H-pyrazolo[3,4-b]pyridin-3-yl]-amine]
96.5 to 102.5 °C | CCC(COC)Nc1c2c(nn1C)N(c1c(C)cc(C)cc1C)CCC2 (centres unmarked) [Compound 5-40, (1-Methoxymethylpropyl)-[2-methyl-7-(2,4,6-trimethylphenyl)-4,5,6,7-tetrahydro-2H-pyrazolo[3,4-b]pyridin-3-yl]-amine]
100.1 to 104.4 °C | CCCC(COC)Nc1c2c(nn1C)N(c1c(C)cc(C)cc1C)CCC2 (centres unmarked) [Compound 5-41, (1-Methoxymethylbutyl)-[2-methyl-7-(2,4,6-trimethylphenyl)-4,5,6,7-tetrahydro-2H-pyrazolo[3,4-b]pyridin-3-yl]-amine]
